Measured values as given in patent US20130178436A1, “COMPOSITION FOR PREVENTING, IMPROVING, OR TREATING RENAL DISEASE INCLUDING MAILLARD BROWNING REACTION PRODUCTS OF PANAX SPECIES PLANT EXTRACT” (Korea Institute of Science and Technology, priority 2012, published 2013).
Marks after values point to notes of the source that are not given here.

What was measured:
LLC-PK1 cells = assay: Protective activity for renal cells against AAPH-induced oxidative damage (MTT viability); format: cell-based; conditions: 10 mM AAPH
Description: Renal cells, i.e., LLC-PK1 cell lines, are vulnerable to oxidative damage, and AAPH, which is a radical releasing agent, combines with oxygen molecules at a very rapid speed to produce a peroxyl radical and trigger lipid peroxidation, resulting in cytotoxicity (Miki et al., Arch. Biochem. Biophy., 258(2), 373-380, 1987). Thus, a protective activity for renal cells may be evaluated using such an oxidative damage of the LLC-PK1 cell lines using AAPH.
A protective effect for nephrotoxicity was evaluated using renal cells (LLC-PK1) with reference to a method reported in the publication (Yokozawa et al., Food Chem., 48, pp5068-5073, 2000) as follows.
First, the LLC-PK1 cells were cultured in an incubator with conditions of 37° C., 95% air, and 5% CO2 by using a DMEM/F12 medium (Gibco BRL Life Technologies, Grand Island, NY, USA) supplemented with 5% fetal bovine serum (Gibco BRL Life Technologies), 50 units/ml of penicillin G, and 50 μg/ml of streptomycin (Gibco BRL Life Technologies). The incubated LLC-PK1 cells were introduced into a 96-well incubation plate at a concentration of 10^4 […] and then stabilized for 2 hours. Afterwards, a radical generating reagent (i.e., 10 mM AAPH dissolved in a medium) was added to each well and cultured for 24 hours, and 50 μl of an MTT (1 mg/ml) reagent was then added to each well and incubated at 37° C. 4 hours thereafter, the medium containing MTT was removed and 100 μl of dimethyl sulfoxide was added to each well. Then, absorbance of the sample was measured using a detection wavelength of 540 nm in a SPECTRAmax 340PC (Molecular Devices, Sunnyvale, Calif., USA) microplate reader and a viability of the LLC-PK1 cells was measured using the absorbance thereof.

[1] = DPPH radical scavenging ability (antioxidative activity); format: biochemical; conditions: 60 μM DPPH, 30 minutes; FIGS. 5 to 13
Description: A DPPH radical scavenging ability was evaluated using a modified method from that described by Hatano et al (Hatano et al., Chem. Pharm. Bull., 37(8), pp 2016-2021, 1989). 100 μl of 60 μM DPPH was added to 100 μl of each of a plurality of sample solutions, the resultant solution was stirred and left for 30 minutes, and the absorbance of the resultant mixture was measured at 540 nm. An antioxidative activity (electron donating ability) was confirmed by measuring a decreasing ratio in absorbances of experimental groups comparing with a control of the sample solutions.

SMILES | viability at 10 µg/mL (LLC-PK1 cells; Sus scrofa, sample 10 μg/ml, 24 hours, MTT, read-out: Cell viability) [%] | viability at 100 µg/mL (LLC-PK1 cells; Sus scrofa, sample 100 μg/ml, 24 hours, MTT, read-out: Cell viability) [%] | DPPH radical scavenging ability (in words) [1] | protective activity for renal cells (in words) (LLC-PK1 cells) | Cell viability (LLC-PK1 cells; sample 10 μg/ml, 24 hours, MTT)
N=C(N)NN [aminoguanidine] | 86.7 ± 14.2 | 88 ± 4.1 |  |  | 
CC(C)=CCC[C@](C)(O[C@@H]1O[C@H](CO)[C@@H](O)[C@H](O)[C@H]1O)[C@H]1CC[C@]2(C)[C@@H]1[C@H](O)C[C@@H]1[C@@]3(C)CC[C@H](O)C(C)(C)[C@@H]3[C@@H](O[C@@H]3O[C@H](CO)[C@@H](O)[C@H](O)[C@H]3O[C@@H]3O[C@@H](C)[C@H](O)[C@@H](O)[C@H]3O)C[C@]12C [ginsenoside Re] |  |  | low reactive oxygen scavenging ability | inhibited cell damage at a high concentration | 89.6 ± 9.7^a %
